Test results as given in patent publication US20110143948A1, “MOLECULAR SIGNATURES AND BIOMARKERS ASSOCIATED WITH MELANOMA AND METHODS OF USE THEREOF” (priority 2008, published 2011).

Legend:
ncRNAs (SEQ ID NO 28-89) = experiment: ncRNA arrays of melanocytes, keratinocytes, normal skin, melanoma cell lines and patient samples; design: species or system human; settings: for ncRNA array expression, patient 2: melanoma patient 2 sample compared to normal skin; for ncRNA array expression, patient 3: melanoma patient 3 sample compared to normal skin; for ncRNA array expression, patient 4: melanoma patient 4 sample compared to normal skin; for ncRNA array expression, patient 5: melanoma patient 5 sample compared to normal skin; for ncRNA array expression, patient 6: melanoma patient 6 sample compared to normal skin; for ncRNA array expression, patient 7: melanoma patient 7 sample compared to normal skin; for ncRNA array expression, patient 8: melanoma patient 8 sample compared to normal skin; for ncRNA array expression, patient 9: melanoma patient 9 sample compared to normal skin; for ncRNA array expression, patient 10: melanoma patient 10 sample compared to normal skin; for ncRNA array expression, patient 19: melanoma patient 19 sample compared to normal skin; for ncRNA array expression, patient 20: melanoma patient 20 sample compared to normal skin; for ncRNA array expression, patient 21: melanoma patient 21 sample compared to normal skin; for ncRNA array expression, patient 22: melanoma patient 22 sample compared to normal skin; for ncRNA array expression, patient 23: melanoma patient 23 sample compared to normal skin; for ncRNA array expression, patient 24: melanoma patient 24 sample compared to normal skin; for ncRNA array expression, patient 25: melanoma patient 25 sample compared to normal skin; for ncRNA array expression, patient 26: melanoma patient 26 sample compared to normal skin; for ncRNA array expression, patient 27: melanoma patient 27 sample compared to normal skin; for ncRNA array expression, patient 28: melanoma patient 28 sample compared to normal skin; for ncRNA array expression, patient 29: melanoma patient 29 sample compared to normal skin; for ncRNA array expression, patient 30: melanoma patient 30 sample compared to normal skin
Summary of the method: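 Differential ncRNA expression was defined against melanocytes or normal skin after subtracting keratinocyte-specific signals, with confirmation by qRT-PCR and Northern blot. Samples were melanoma cell lines, patient tumours, melanocytes, keratinocytes and normal skin, hybridised to a >10,000-probe (>200 nt) ncRNA array that also carries RefSeq mRNA probes.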

KCNMA1 = experiment: beta gal target cleavage assay, KCNMA1; format: cell-based, human
RAB22A = experiment: beta gal target cleavage assay, RAB22A; format: cell-based, human; settings: A375 cells, mimic co-transfected at 100 nM
Protocol: (§1) Target cleavage assays using the miRNA targets from the bioinformatics analyses above were conducted. The 3′ UTR seed sequences of putative target genes were amplified by PCR (Phusion PCR kit, Finnzymes) from human Melanocyte genomic DNA (Primers: ARL2 For-ctcctccaccccagcctgc (SEQ ID NO 92), ARL2 Rev-[…] (SEQ ID NO 93); FGF2 For-[…] (SEQ ID NO 94), FGF2 Rev-[…] (SEQ ID NO 95); RAB22A For-[…] (SEQ ID NO 96), RAB22A Rev-[…] (SEQ ID NO 97); SLC37A3 For-[…] (SEQ ID NO 98), SLC37A3 Rev-[…] (SEQ ID NO 99); TCF12 For-[…] (SEQ ID NO 100), TCF12 Rev-[…] ((SEQ ID NO 101); all primer sets containing 5′ NotI and 3′ AgeI sites). PCR products were cloned into pCR4-TOPO (Invitrogen), confirmed by sequencing, then subcloned into the 3′ UTR of the LacZ gene in pcDNA6/V5-His/LacZ (Invitrogen) using the 5′ NotI and 3′ AgeI restriction sites, and reconfirmed by sequencing (pcDNA6/LacZ/ARL2, pcDNA6/LacZ/FGF2, pcDNA6/LacZ/RAB22A, pcDNA6/LacZ/SLC37A3, and pcDNA6/LacZ/TCF12, respectively). FIG. 11 is an example of the pcDNA6/LacZ construct used within these experiments. As shown, the FGF2 target sequence may be cloned into the 3′ UTR of the LacZ gene. […]

SLC37A3 = experiment: beta gal target cleavage assay, SLC37A3; format: cell-based, human; settings: A375 cells, mimic co-transfected at 100 nM
Protocol: as §1

TCF12 = experiment: beta gal target cleavage assay, TCF12; format: cell-based, human; settings: A375 cells, mimic co-transfected at 100 nM; Kruskal Wallis p-value<0.001
Protocol: Target cleavage assays using the miRNA targets from the bioinformatics analyses above were conducted. The 3' UTR seed sequences of putative target genes were amplified by PCR (Phusion PCR kit, Finnzymes) from human Melanocyte genomic DNA (Primers: ARL2 For-[NT] (SEQ ID NO 92), ARL2 Rev-[NT] (SEQ ID NO 93); FGF2 For-[NT] (SEQ ID NO 94), FGF2 Rev-[NT] (SEQ ID NO 95); RAB22A For-[NT] (SEQ ID NO 96), RAB22A Rev-[NT] (SEQ ID NO 97); SLC37A3 For-[NT] (SEQ ID NO 98), SLC37A3 Rev-[NT] (SEQ ID NO 99); TCF12 For-[NT] (SEQ ID NO 100), TCF12 Rev-[NT] ((SEQ ID NO 101); all primer sets containing [NT] AgeI sites). PCR products were cloned into pCR4-TOPO (Invitrogen), confirmed by sequencing, then subcloned into the 3' UTR of the LacZ gene in pcDNA6/[…]/LacZ (Invitrogen) using the [NT] AgeI restriction sites, and reconfirmed by sequencing (pcDNA6/LacZ/ARL2, pcDNA6/LacZ/FGF2, pcDNA6/LacZ/RAB22A, pcDNA6/LacZ/SLC37A3, and pcDNA6/LacZ/TCF12, respectively). FIG. 11 is an example of the pcDNA6/LacZ construct used within these experiments. As shown, the FGF2 target sequence may be cloned into the 3' UTR of the LacZ gene. A375 Melanoma cell lines were transfected in triplicate (Fugene 6, Roche) with 5 μg plasmid DNA of: […] Negative control sequence is based on cel-miR-67, mature sequence: […] been confirmed to have minimal sequence identity with miRNAs in human, mouse and rat or E) no mimic. […]

Substance	ncRNA array expression, patient 2 (ncRNAs (SEQ ID NO 28-89))	ncRNA array expression, patient 3 (ncRNAs (SEQ ID NO 28-89))	ncRNA array expression, patient 4 (ncRNAs (SEQ ID NO 28-89))	ncRNA array expression, patient 5 (ncRNAs (SEQ ID NO 28-89))	ncRNA array expression, patient 6 (ncRNAs (SEQ ID NO 28-89))	ncRNA array expression, patient 7 (ncRNAs (SEQ ID NO 28-89))	ncRNA array expression, patient 8 (ncRNAs (SEQ ID NO 28-89))	ncRNA array expression, patient 9 (ncRNAs (SEQ ID NO 28-89))	ncRNA array expression, patient 10 (ncRNAs (SEQ ID NO 28-89))	ncRNA array expression, patient 19 (ncRNAs (SEQ ID NO 28-89))	ncRNA array expression, patient 20 (ncRNAs (SEQ ID NO 28-89))	ncRNA array expression, patient 21 (ncRNAs (SEQ ID NO 28-89))	ncRNA array expression, patient 22 (ncRNAs (SEQ ID NO 28-89))	ncRNA array expression, patient 23 (ncRNAs (SEQ ID NO 28-89))	ncRNA array expression, patient 24 (ncRNAs (SEQ ID NO 28-89))	ncRNA array expression, patient 25 (ncRNAs (SEQ ID NO 28-89))	ncRNA array expression, patient 26 (ncRNAs (SEQ ID NO 28-89))	ncRNA array expression, patient 27 (ncRNAs (SEQ ID NO 28-89))	ncRNA array expression, patient 28 (ncRNAs (SEQ ID NO 28-89))	ncRNA array expression, patient 29 (ncRNAs (SEQ ID NO 28-89))	further results
SEQ ID NO 86 (AAAATTATTTTATCTTAAGTTTCCATTTAGTTGATTAAAAATAGGGTTATGAATGTTAAA; listed as DNA, chemistry not given here; listed as Homo sapiens)	2.021	1.628	5.076	−0.09781	−0.05485	−0.1079	0.751	0.02401	1.097	1.409	0.8906	1.056	−0.01773	−0.00853	2.72	3.621	3.088	5.119	−0.07222	−0.07156	ncRNA array expression, patient 30 (ncRNAs (SEQ ID NO 28-89)): 1.029
SEQ ID NO 87 (GGGATATTTTTAAGGGGAAGGGGAAGGATAGAGAGAAAGTGCAGGCAGGGCTGGGGTCTG; listed as DNA, chemistry not given here; listed as Homo sapiens)	−2.131	−1.6373	−2.999	−2.972	−2.3216	−2.468	−2.76	−1.536	−1.881	−0.8262	−1.935	−2.079	−1.312	−2	−3.011	−2.33	−2.364	−2.214	−2.17	−2.373	ncRNA array expression, patient 30 (ncRNAs (SEQ ID NO 28-89)): 0.7984
SEQ ID NO 88 (CTGTTGCTTATTCTGGGAGCCCAATCCTAGGCTGAGGGAGGTGGGCGCGGGGCTGTTTAA; listed as DNA, chemistry not given here; listed as Homo sapiens)	−1.501	−1.118	−1.158	−1.192	−0.882	−1.165	−1.206	−1.551	−1.883	−0.5619	−1.6443	−1.527	−0.8009	−0.3034	−1.128	−1.933	−1.942	−2.173	−1.861	−2.1207	ncRNA array expression, patient 30 (ncRNAs (SEQ ID NO 28-89)): 0.7208
SEQ ID NO 89 (GGACACAGAGAGTCATGCACCAGCCCAGTGAGAACCAATTCAGAGCCAAATGCCAAACCC; listed as DNA, chemistry not given here; listed as Homo sapiens)	−1.09	−1.2821	−1.434	−1.049	−0.6535	−0.5162	−1.137	−1.442	−1.643	−0.5304	−0.7949	−1.104	−0.9143	−0.3405	−0.9409	−1.675	−1.6	−0.9956	−0.9677	−1.266	ncRNA array expression, patient 30 (ncRNAs (SEQ ID NO 28-89)): 0.7591
miR-211: miRIDIAN microRNA Mimic (Dharmacon) for miR-211, UUCCCUUUGUCAUCCUUCGCCU (commercial miRIDIAN mimic, chemistry not given here; listed as Homo sapiens)	–	–	–	–	–	–	–	–	–	–	–	–	–	–	–	–	–	–	–	–	target binding in KCNMA1 (beta gal target cleavage assay) (KCNMA1): confirmed; beta-galactosidase activity, RAB22A target construct (RAB22A): decreased; beta-galactosidase activity, SLC37A3 target construct (SLC37A3): decreased; beta-galactosidase activity, TCF-12 target construct (TCF12): statistically significant reduction in fold change
